Measurements from publication PMC7997578, “Design, Synthesis, Dynamic Docking, Biochemical Characterization, and in Vivo Pharmacokinetics Studies of Novel Topoisomerase II Poisons with Promising Antiproliferative Activity” (Journal of Medicinal Chemistry, 2020).

Test: aqueous kinetic solubility
Assay type: physicochemical
Details: PBS, pH 7.4, PBS pH 7.4, target 250 µM, 2.5% DMSO, 25°C
Procedure: 1. In vitro m etabolic stabili ty
In vitro microsomial stability. 10mM DMSO stock solution of test compound was pre-incubated at 37 °C for 15min with mouse liver microsomes added 0.1M Tris-HCl buffer (pH 7.4). The final concentration was 4.6µM. After pre -incubation, the co-factors (NADPH, G6P, G6PDH and MgCl2 pre-dissolved in 0.1M Tris-HCl) were added to the incubation mixture and the incubation was continued at 37 °C for 1h. At each time point (0, 5, 15, 30, 60min), 30µL of incubation mixture was diluted with 200µL cold CH 3CN spiked with 200n M of internal standard, followed by centrifugation at 3500g for 15min. The supernatant was further diluted with H2O (1:1) for analysis. The concentration of test compound was quantified by LC/MS-MS on a Waters ACQUITY UPLC/M S TQD system consisting of a TQD (Triple Quadrupole Detector) Mass Spectrometer equipped with an Electrospray Ionization interface. The analyses were run on an ACQUITY UPLC BEH C18 (50x2.1mmID, particle size 1.7µm) with a VanGuard BEH C18 pre -column (5x2.1mmID, particle size 1.7µm) at 40°C, using 0.1% HCOOH in H 2O (A) and 0.1% HCOOH in CH 3CN (B) as mobile phase. Electrospray ionization (ESI) was app lied in positive mode . The percentage of test compound remaining at each time point relative to t=0 was calculated. The half -lives (t½) were determined by an one-phase decay equation using a non -linear regression of compound concentration versus time.
In vitro Plasma Stability. 10mM DMSO stock solution of test compound was diluted 50 -fold with DMSO-H2O (1:1) and incubated at 37 °C for 2 h with mouse plasma added 5% DMSO (pre-heated at 37 °C for 10 min). The final concentration was 2µM. At each time point (0, 5, 15, 30, 60, 120min), 50 µL of incubation mixture was diluted with 200µL cold CH3CN spiked with 200nM of internal standard, followed by centrifugation at 3500g for 20min. The supernatant was further diluted with H2O (1:1) for analysis. The concentration of test compound was quantified by LC/MS-MS on a Waters ACQUITY UPLC/MS TQD system consisting of a TQD (Triple Quadrupole Detector) Mass Spectrometer equipped with an Electrospray Ionization interface. The analyses were run on an ACQUITY UPLC BEH C18 (50x2.1mmID, particle size 1.7µm) with a VanGuard BEH C18 pre - column (5x2.1mmID, particle size 1.7µm) at 40°C, using 0.1% HCOOH in H2O (A) and 0.1% HCOOH in CH3CN (B) as mobile phase. Electrospray ionization (ESI) was applied in positive mode.
The response factors, calculated on the basis of the internal standard peak area, were plotted over time. When possible, response vs. time profiles were fitted with Prism (GraphPad Software, Inc., USA) to estimate compounds half-life in plasma.
2. Aqueous ki netic solu bili ty
The aqueous kinetic solubility was determined from a 10mM DMSO stock solution of test compound in Phosphate Buffered Saline (PBS) at pH 7.4. The study was performed by incubation of an aliquot of 10mM DMSO stock solution in PBS (pH 7.4) at a target concentration of 250µM resulting in a final concentration of 2.5% DMSO. The incubation was carried out under shaking at 25°C for 24h followed by centrifugation at 21.100g for 30min. The supernatant was analyzed by UPLC/MS for the quantification of dissolved compound by UV at a specific wavelength (215nm).
The analyses were performed on a Waters ACQUITY UPLC/MS SQD system consisting of a SQD (Single Quadrupole Detector) Mass Spectrometer equipped with Electrospray Ionization interface.
The analyses were run on an ACQUITY UPLC BEH C18 column (50x2.1mmID, particle size 1.7µm) with a VanGuard BEH C18 pre-column (5x2.1mmID, particle size 1.7µm), using 10mM NH4OAc in H2O at pH 5 adjusted with AcOH (A) and 10mM NH4OAc in MeCN-H2O (95:5) at pH 5 (B) as […]

## O=C(Nc1cccc(OC(F)(F)F)c1)c1c(O)n(-c2ccccc2)c(=S)n(-c2ccccc2)c1=O [3f, 6-Hydroxy-4-oxo-1,3-diphenyl-2-thioxo-N-(3-(trifluoromethoxy)phenyl)-1,2,3,4-tetrahydropyrimidine-5-carboxamide]
  solubility kinetic at 24 h: > 200 µM
